Reference: patent US20090176811A1, “Substituted 5,6,7,8-Tetrahydro-pyrido[4,3-d]pyrimidine-2-yl Compounds and 5,6,7,8-Tetrahydro-quinazoline-2-yl Compounds” (GRUENENTHAL GmbH, priority 2004, published 2009)

Key:
NA transporter = biological target: T1, NA transporter (Rattus norvegicus, UniProt Q63380); experiment: Noradrenalin uptake inhibition in rat brain synaptosomes (hypothalamus); type: biochemical
T1 construct: from tissue; host or cells: rat hypothalamus synaptosomes (P2 fraction)
Text: (§1) I. Method for Determining Noradrenalin and 5-HT Uptake Inhibition:
(§2) Synaptosomes from rat brain regions are freshly isolated for in vitro studies, as described in the publication “The isolation of nerve endings from brain” by E. G. Gray and V. P. Whittaker, J. Anatomy 96, pages 79-88, 1962. The corresponding literature description is hereby introduced as a reference and is deemed to be part of the disclosure.
(§3) The tissue (hypothalamus for the determination of noradrenalin uptake inhibition and medulla and pons for the determination of 5-HT uptake inhibition) is homogenised in ice-cooled 0.32 M sucrose (100 mg of tissue/1 mL) in a glass homogeniser with Teflon pestle using five complete up and down strokes at 840 revolutions/minute.
(§4) The homogenate is centrifuged at 4° C. for 10 minutes at 1000 g. After subsequent centrifugation at 17000 g for 55 minutes, the synaptosomes (P2 fraction) are obtained, which are resuspended in 0.32 M […] (0.5 mL/100 mg of original weight).
(§5) The particular uptake is measured in a 96-well microtitre plate. The volume is 250 μl and the incubation proceeds at room temperature (approx. 20-25° C.) under an O2 atmosphere.
(§6) The incubation time is 7.5 minutes for [^3H]-NA and 5 minutes for [^3H]-5-HT.
(§7) The 96 samples are then filtered through a Unifilter GF/B microtitre plate (Packard) and washed with 200 mL of incubated buffer using a “Brabdel MPXRI-96T Cell-Harvester”. The Unifilter GF/B plate is dried for 1 hour at 55° C. The plate is then sealed with a Back seal (Packard) and 35 μl of scintillation fluid are added per well (Ultima Gold, Packard). After sealing with a top seal (Packard) and establishing an equilibrium (around 5 hours), radioactivity is determined in a “Trilux 1450 Microbeta” (Wallac).
(§8) The quantity of protein used in the above determination corresponds to the values known from the literature, as for example described in “Protein measurement with the folin phenol reagent”, Lowry et al., J. Biol. Chem., 193, 265-275, 1951.
(§9) A detailed description of the method may additionally be found in the literature, for example in M. Ch. Frink, H.-H. Hennies, W. Engelberger, M. Haurand and B. Wilffert (1996) Arzneim.-Forsch./Drug Res. 46 (III), 11, 1029-1036.
(§10) The corresponding literature descriptions are hereby introduced in each case as a reference and are deemed to be part of the present disclosure.
(§11) The following characteristics were determined for the NA or 5-HT transporter: […]

5-HT transporter = biological target: T2, 5-HT transporter (Rattus norvegicus, UniProt P31652); experiment: 5-HT uptake inhibition in rat brain synaptosomes (medulla and pons); type: biochemical
T2 construct: from tissue; host or cells: rat medulla and pons synaptosomes (P2 fraction)
T2 sequence (P31652 whole entry): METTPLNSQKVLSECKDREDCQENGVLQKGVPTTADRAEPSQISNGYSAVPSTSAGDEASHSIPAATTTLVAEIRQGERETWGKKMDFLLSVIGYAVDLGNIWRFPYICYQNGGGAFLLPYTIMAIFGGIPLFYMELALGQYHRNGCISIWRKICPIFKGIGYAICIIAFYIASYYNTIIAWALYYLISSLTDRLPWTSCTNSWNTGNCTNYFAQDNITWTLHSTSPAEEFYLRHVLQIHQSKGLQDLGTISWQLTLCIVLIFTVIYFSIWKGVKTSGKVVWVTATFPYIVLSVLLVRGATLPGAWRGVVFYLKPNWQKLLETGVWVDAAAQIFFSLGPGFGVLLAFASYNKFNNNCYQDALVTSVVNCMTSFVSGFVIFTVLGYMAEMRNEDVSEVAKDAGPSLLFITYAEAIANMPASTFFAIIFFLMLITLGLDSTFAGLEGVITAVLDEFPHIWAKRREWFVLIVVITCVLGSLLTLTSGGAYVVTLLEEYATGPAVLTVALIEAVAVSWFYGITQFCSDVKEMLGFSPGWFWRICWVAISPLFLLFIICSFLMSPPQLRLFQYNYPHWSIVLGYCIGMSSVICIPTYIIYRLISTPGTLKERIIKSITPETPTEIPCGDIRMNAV
Text: as §1, §2, §3, §4, §5, §6, §7, §8, §9, §10, §11

T1 sequence (Q63380 1-617): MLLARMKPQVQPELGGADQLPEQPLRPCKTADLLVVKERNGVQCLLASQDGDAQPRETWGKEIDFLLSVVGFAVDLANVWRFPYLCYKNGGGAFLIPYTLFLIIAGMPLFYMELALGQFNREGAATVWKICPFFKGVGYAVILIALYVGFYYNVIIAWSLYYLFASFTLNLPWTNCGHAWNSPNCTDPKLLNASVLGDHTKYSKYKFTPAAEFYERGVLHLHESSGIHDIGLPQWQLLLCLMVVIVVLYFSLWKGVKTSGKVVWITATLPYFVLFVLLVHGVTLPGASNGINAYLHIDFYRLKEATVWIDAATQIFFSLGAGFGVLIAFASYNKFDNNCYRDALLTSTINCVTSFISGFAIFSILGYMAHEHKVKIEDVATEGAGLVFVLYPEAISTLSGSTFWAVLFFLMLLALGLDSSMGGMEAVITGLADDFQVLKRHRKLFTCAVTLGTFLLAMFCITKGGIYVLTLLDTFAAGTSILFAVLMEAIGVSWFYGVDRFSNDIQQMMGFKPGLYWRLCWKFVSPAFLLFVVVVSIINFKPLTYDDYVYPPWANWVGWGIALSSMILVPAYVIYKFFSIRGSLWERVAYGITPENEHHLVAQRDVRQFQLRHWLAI

Compound	inhibition at 10 µM (NA transporter) [%]	inhibition at 1 µM (5-HT transporter) [%]
CCc1ccc(C(=O)Nc2ncc3c(n2)CCN(C(=O)c2ccc(Cl)c(Cl)c2)C3)cc1 [Example 101, N-[6-(3,4-dichloro-benzoyl)-5,6,7,8-tetrahydro-pyrido[4,3-d]pyrimidin-2-yl]-4-ethyl-benzamide]	84	65
Cc1ccccc1C(=O)N1CCc2nc(NC(=O)c3cccc(Cl)c3)ncc2C1 [Example 109, 3-chloro-N-[6-(2-methyl-benzoyl)-5,6,7,8-tetrahydro-pyrido[4,3-d]pyrimidin-2-yl]-benzamide]	92	30
O=C(Nc1ncc2c(n1)CCN(C(=O)c1sc3ccccc3c1Cl)C2)c1cccs1 [Example 110, thiophene-2-carboxylic acid [6-(3-chloro-benzo[b]thiophene-2-carbonyl)-5,6,7,8-tetrahydro-pyrido[4,3-d]pyrimidin-2-yl]-amide]	75	96
CCc1ccc(C(=O)Nc2ncc3c(n2)CCN(S(=O)(=O)c2ccccc2Cl)C3)cc1 [Example 114, N-[6-(2-chloro-benzenesulfonyl)-5,6,7,8-tetrahydro-pyrido[4,3-d]pyrimidin-2-yl]-4-ethyl-benzamide]	73	50
Cc1cccc(C(=O)Nc2ncc3c(n2)CCN(S(=O)(=O)c2cccc(C)c2)C3)c1 [Example 116, 3-methyl-N-[6-(toluene-3-sulfonyl)-5,6,7,8-tetrahydro-pyrido[4,3-d]pyrimidin-2-yl]-benzamide]	52	31
O=C(Nc1ncc2c(n1)CCN(S(=O)(=O)c1ccc(Cl)s1)C2)c1cccc2ccccc12 [Example 117, naphthalene-1-carboxylic acid [6-(5-chloro-thiophene-2-sulfonyl)-5,6,7,8-tetrahydro-pyrido[4,3-d]pyrimidin-2-yl]-amide]	31	32
COc1ccc(C(=O)N2CCc3nc(NC(=O)c4cccc(Cl)c4)ncc3C2)cc1OC [Example 119, 3-chloro-N-[6-(3,4-dimethoxy-benzoyl)-5,6,7,8-tetrahydro-pyrido[4,3-d]pyrimidin-2-yl]-benzamide]	72	34
O=C(Nc1ncc2c(n1)CCN(C(=O)c1sc3ccccc3c1Cl)C2)c1ccccc1 [Example 120, N-[6-(3-chloro-benzo[b]thiophene-2-carbonyl)-5,6,7,8-tetrahydro-pyrido[4,3-d]pyrimidin-2-yl]-benzamide]	78	92
CCc1ccc(C(=O)Nc2ncc3c(n2)CCN(S(=O)(=O)c2ccsc2)C3)cc1 [Example 121, 4-ethyl-N-[6-(thiophene-3-sulfonyl)-5,6,7,8-tetrahydro-pyrido[4,3-d]pyrimidin-2-yl]-benzamide]	92	52
O=C(Nc1ncc2c(n1)CCN(S(=O)(=O)c1cccc(Br)c1)C2)c1cccc(Cl)c1 [Example 125, N-[6-(3-bromo-benzenesulfonyl)-5,6,7,8-tetrahydro-pyrido[4,3-d]pyrimidin-2-yl]-3-chloro-benzamide]	70	43
O=C(Nc1ncc2c(n1)CCN(C(=O)Cc1ccc(Cl)cc1)C2)c1ccc(Cl)c(Cl)c1 [Example 126, 3,4-dichloro-N-{6-[2-(4-chloro-phenyl)-acetyl]-5,6,7,8-tetrahydro-pyrido[4,3-d]pyrimidin-2-yl}-benzamide]	89	55
O=C(Nc1ncc2c(n1)CCN(C(=O)c1c(F)cccc1Cl)C2)c1cccc(Cl)c1 [Example 127, 3-chloro-N-[6-(2-chloro-6-fluoro-benzoyl)-5,6,7,8-tetrahydro-pyrido[4,3-d]pyrimidin-2-yl]-benzamide]	71	35
O=C(Nc1ncc2c(n1)CCN(S(=O)(=O)c1ccc(OC(F)(F)F)cc1)C2)c1ccc(Cl)c(Cl)c1 [Example 134, 3,4-dichloro-N-[6-(4-trifluoromethoxy-benzenesulfonyl)-5,6,7,8-tetrahydro-pyrido[4,3-d]pyrimidin-2-yl]-benzamide]	59	58
O=C(Nc1ncc2c(n1)CCN(C(=O)C1CCc3ccccc3C1)C2)c1cccc(F)c1 (stereo not shown) [Example 141, 3-fluoro-N-[6-(1,2,3,4-tetrahydro-naphthalene-2-carbonyl)-5,6,7,8-tetrahydro-pyrido[4,3-d]pyrimidin-2-yl]-benzamide]	55	54
O=C(Nc1ncc2c(n1)CCN(C(=O)c1ccc(-c3cccs3)cc1)C2)c1cc(Cl)cc(Cl)c1 [Example 144, 3,5-dichloro-N-[6-(4-thiophen-2-yl-benzoyl)-5,6,7,8-tetrahydro-pyrido[4,3-d]pyrimidin-2-yl]-benzamide]	67	42
CCc1ccc(C(=O)Nc2ncc3c(n2)CCN(S(=O)(=O)c2ccc4c(c2)CN(C(=O)C(F)(F)F)CC4)C3)cc1 [Example 157, 4-ethyl-N-{6-[2-(2,2,2-trifluoro-acetyl)-1,2,3,4-tetrahydro-isoquinoline-7-sulfonyl]-5,6,7,8-tetrahydro-pyrido[4,3-d]pyrimidin-2-yl}-benzamide]	61	43
COc1ccccc1C(=O)Nc1ncc2c(n1)CCN(S(=O)(=O)c1c(C)cc(OC)c(C)c1C)C2 [Example 158, 2-methoxy-N-[6-(4-methoxy-2,3,6-trimethyl-benzenesulfonyl)-5,6,7,8-tetrahydro-pyrido[4,3-d]pyrimidin-2-yl]-benzamide]	36	55
O=C(Nc1ncc2c(n1)CCN(C(=O)C1=Cc3ccccc3OC1)C2)c1ccc(F)c(F)c1 [Example 175, N-[6-(2H-chromene-3-carbonyl)-5,6,7,8-tetrahydro-pyrido[4,3-d]pyrimidin-2-yl]-3,4-difluoro-benzamide]	46	32
CC(C)(C)c1ccc(C(=O)Nc2ncc3c(n2)CCN(C(=O)c2csc4ccccc24)C3)cc1 [Example 184, N-[6-(benzo[b]thiophene-3-carbonyl)-5,6,7,8-tetrahydro-pyrido[4,3-d]pyrimidin-2-yl]-4-tert-butyl-benzamide]	69	48
CC(C)(C)c1ccc(C(=O)Nc2ncc3c(n2)CCN(S(=O)(=O)c2ccc4c(c2)OCCO4)C3)cc1 [Example 186, 4-tert-butyl-N-[6-(2,3-dihydro-benzo[1,4]dioxin-6-sulfonyl)-5,6,7,8-tetrahydro-pyrido[4,3-d]pyrimidin-2-yl]-benzamide]	82	46
O=C(Nc1ncc2c(n1)CCN(C(=O)Cc1c(Cl)cccc1Cl)C2)c1cccc(Cl)c1 [Example 187, 3-chloro-N-{6-[2-(2,6-dichloro-phenyl)-acetyl]-5,6,7,8-tetrahydro-pyrido[4,3-d]pyrimidin-2-yl}-benzamide]	100	29
O=C(Nc1ncc2c(n1)CCN(C(=O)CCCCc1ccccc1)C2)c1ccccc1 [Example 190, N-[6-(5-phenyl-pentanoyl)-5,6,7,8-tetrahydro-pyrido[4,3-d]pyrimidin-2-yl]-benzamide]	73	36
O=C(Nc1ncc2c(n1)CCN(C(=O)c1ccc(OC(F)(F)F)cc1)C2)c1cc(Cl)cc(Cl)c1 [Example 192, 3,5-dichloro-N-[6-(4-trifluoromethoxy-benzoyl)-5,6,7,8-tetrahydro-pyrido[4,3-d]pyrimidin-2-yl]-benzamide]	73	47
